Reference: patent US9393232B2 (BeiGene, Ltd., priority 2013, dated 2016)
Read-outs that look alike come from different tables or passages of the source.

Experiments:
[1] = target: Recombinant human BRDT(1-397) (Homo sapiens (Human), UniProt Q58F21); assay: BRDT TR-FRET biochemical IC50 assay; type: binding
[2] = target: Recombinant human BRD4(1-477) (Homo sapiens (Human), UniProt O60885); assay: BRD4 TR-FRET biochemical IC50 assay; type: binding; settings: tetra-acetylated histone peptide
[3] = target: Recombinant human BRD3(1-435) (Homo sapiens (Human), UniProt Q15059); assay: BRD3 TR-FRET biochemical IC50 assay; type: binding
Chain of Recombinant human BRD3(1-435) (Q15059 1-435): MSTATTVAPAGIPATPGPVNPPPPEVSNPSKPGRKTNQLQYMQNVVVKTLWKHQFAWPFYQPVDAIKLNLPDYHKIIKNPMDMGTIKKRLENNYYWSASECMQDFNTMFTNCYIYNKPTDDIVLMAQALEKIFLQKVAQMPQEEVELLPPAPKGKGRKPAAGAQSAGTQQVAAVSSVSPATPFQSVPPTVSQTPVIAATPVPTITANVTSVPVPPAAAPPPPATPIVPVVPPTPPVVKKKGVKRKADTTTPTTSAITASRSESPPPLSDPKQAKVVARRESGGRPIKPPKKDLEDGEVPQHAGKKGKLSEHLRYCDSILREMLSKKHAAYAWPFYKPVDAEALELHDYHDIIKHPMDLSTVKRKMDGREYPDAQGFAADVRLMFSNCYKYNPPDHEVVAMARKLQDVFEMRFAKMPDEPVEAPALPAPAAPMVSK

[4] = target: Recombinant human BRD2(1-473) (Homo sapiens (Human), UniProt P25440); assay: BRD2 TR-FRET biochemical IC50 assay; type: binding
Chain of Recombinant human BRD2(1-473) (P25440 1-473): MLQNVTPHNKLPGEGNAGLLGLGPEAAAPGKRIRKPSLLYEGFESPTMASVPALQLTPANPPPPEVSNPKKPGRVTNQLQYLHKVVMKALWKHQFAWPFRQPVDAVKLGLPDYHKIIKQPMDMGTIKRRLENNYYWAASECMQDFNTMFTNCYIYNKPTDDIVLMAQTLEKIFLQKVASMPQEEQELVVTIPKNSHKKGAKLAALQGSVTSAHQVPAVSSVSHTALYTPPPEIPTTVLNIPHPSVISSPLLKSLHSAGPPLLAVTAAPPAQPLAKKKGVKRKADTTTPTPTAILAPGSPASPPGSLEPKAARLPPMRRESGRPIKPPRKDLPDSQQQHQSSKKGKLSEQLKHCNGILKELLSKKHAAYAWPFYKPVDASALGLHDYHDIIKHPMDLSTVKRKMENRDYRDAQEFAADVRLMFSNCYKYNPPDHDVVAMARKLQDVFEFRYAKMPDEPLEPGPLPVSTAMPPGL

[5] = tested on: MV4-11; assay: MV4-11 (3 Days) EC50; type: cell-based
[6] = TR-FRET, tetra-acetylated histone peptide, read-out: BRDT IC50
[7] = TR-FRET, tetra-acetylated histone peptide, read-out: BRD3 IC50
[8] = TR-FRET, tetra-acetylated histone peptide, read-out: BRD2 IC50

SMILES	IC50 ([2]; TR-FRET, read-out: BRD4 IC50)	EC50 ([5]; Homo sapiens, MV4-11, 72 h)	also measured
Cc1noc(C)c1-c1ccc2c(c1)C(O)(C1CCCCC1=O)C(=O)N2 (single isomer, unassigned) [Compound 1.30a, 5-(3,5-Dimethylisoxazol-4-yl)-3-hydroxy-3-(2-oxocyclohexyl)indolin-2-one]	70 nM		IC50 [1, 6]: 58 nM; IC50 [3, 7]: 25 nM; IC50 [4, 8]: 52 nM
Cc1noc(C)c1-c1ccc2c(c1)C(N[C@H](C)CO)(c1ccccc1)C(=O)N2 (single isomer, unassigned) [Compound 2.10a]			IC50 [1, 6]: 69 nM; IC50 [3, 7]: 23 nM; IC50 [4, 8]: 24 nM
Cc1noc(C)c1-c1ccc2c(c1)C(O)(c1ccsc1)C(=O)N2 (single isomer, unassigned) [Compound 4.1b, 5-(3,5-Dimethylisoxazol-4-yl)-3-hydroxy-3-(thiophen-3-yl)indolin-2-one]			EC50 ([5]; Homo sapiens, 72 h): 73 nM; IC50 [1]: 31 nM; IC50 ([2]; BRD4 IC50, TR-FRET): 34 nM; IC50 [3]: 14 nM; IC50 [4]: 18 nM
Cc1noc(C)c1-c1ccc2c(c1)C(NCC(C)O)(C1CCCCC1)C(=O)N2 (stereo in doubt) [Compound 2.22, 3-cyclohexyl-5-(3,5-dimethylisoxazol-4-yl)-3-((R)-2-hydroxypropylamino)indolin-2-one]	81 nM		EC50 [5]: 116 nM; IC50 [1, 6]: 42 nM; IC50 [3, 7]: 23 nM; IC50 [4, 8]: 32 nM
Cc1noc(C)c1-c1ccc2c(c1)C(O)(C1CCOCC1)C(=O)N2 (stereo not shown) [Compound 1.16, 5-(3,5-dimethylisoxazol-4-yl)-3-hydroxy-3-(tetrahydro-2H-pyran-4-yl)indolin-2-one]	630 nM		IC50 [1, 6]: 510 nM; IC50 [3, 7]: 140 nM; IC50 [4, 8]: 380 nM
Cc1noc(C)c1-c1ccc2c(c1)C(c1ccccc1)(N1CCC[C@H](O)C1)C(=O)N2 (stereo partly drawn) [Compound 2.16, 5-(3,5-dimethylisoxazol-4-yl)-3-((S)-3-hydroxypiperidin-1-yl)-3-phenylindolin-2-one]			IC50 [1, 6]: 23 nM; IC50 [3, 7]: 9.9 nM; IC50 [4, 8]: 9.6 nM
Cc1noc(C)c1-c1ccc2c(c1)C(c1ccccc1)(N1CCNCC1)C(=O)N2 (stereo not shown) [Compound 2.38, 5-(3,5-dimethylisoxazol-4-yl)-3-phenyl-3-(piperazin-1-yl)indolin-2-one]	120 nM	504 nM	
Cc1noc(C)c1-c1ccc2c(c1)C(C1CCCCC1)(N1CCNCC1)C(=O)N2 (stereo not shown) [Compound 2.39]	76 nM	365 nM	
Cc1noc(C)c1-c1ccc2c(c1)C(C1CCCC1)(N1CCNCC1)C(=O)N2 (stereo not shown) [Compound 2.40, 3-Cyclopentyl-5-(3,5-dimethylisoxazol-4-yl)-3-(piperazin-1-yl)indolin-2-one]	150 nM	555 nM	
Cc1noc(C)c1-c1ccc2c(c1)C(c1ccccc1)(N1CCC[C@H](N)C1)C(=O)N2 (stereo partly drawn) [Compound 2.46, 3-((S)-3-aminopiperidin-1-yl)-5-(3,5-dimethylisoxazol-4-yl)-3-phenylindolin-2-one]	11 nM		IC50 [1, 6]: 14 nM; IC50 [3, 7]: 5.3 nM; IC50 [4, 8]: 6.6 nM
Cc1noc(C)c1-c1ccc2c(c1)C(c1ccccc1)(N1CC(O)C1)C(=O)N2 (stereo not shown) [Compound 2.58, 5-(3,5-Dimethylisoxazol-4-yl)-3-(3-hydroxyazetidin-1-yl)-3-phenylindolin-2-one]	78 nM	258 nM	
Cc1noc(C)c1-c1ccc2c(c1)C(c1ccccc1)C(=O)N2 (stereo not shown) [Compound 3.1, 5-(3,5-Dimethylisoxazol-4-yl)-3-phenylindolin-2-one]	110 nM	382 nM	
Cc1noc(C)c1-c1ccc2c(c1)C(CCCO)(c1ccccc1)C(=O)N2 (stereo not shown) [Compound 3.2, 5-(3,5-dimethylisoxazol-4-yl)-3-(3-hydroxypropyl)-3-phenylindolin-2-one]	52 nM	125 nM	
CCOC(=O)CC1(c2ccccc2)C(=O)Nc2ccc(-c3c(C)noc3C)cc21 (stereo not shown) [Compound 3.3, Ethyl 2-(5-(3,5-dimethylisoxazol-4-yl)-2-oxo-3-phenylindolin-3-yl)acetate]	440 nM	787 nM	
Cc1noc(C)c1-c1ccc2c(c1)C(CCO)(c1ccccc1)C(=O)N2 (stereo not shown) [Compound 3.5, 5-(3,5-Dimethylisoxazol-4-yl)-3-(2-hydroxyethyl)-3-phenylindolin-2-one]	120 nM	140 nM	
Cc1noc(C)c1-c1ccc2c(c1)C(CCCN1CCOCC1)(c1ccccc1)C(=O)N2 (stereo not shown) [Compound 3.6, 5-(3,5-dimethylisoxazol-4-yl)-3-(3-morpholinopropyl)-3-phenylindolin-2-one]	100 nM	270 nM	
Cc1noc(C)c1-c1ccc2c(c1)C(CCCN1CCN(C)CC1)(c1ccccc1)C(=O)N2 (stereo not shown) [Compound 3.7, 5-(3,5-Dimethylisoxazol-4-yl)-3-(3-(4-methylpiperazin-1-yl)propyl)-3-phenylindolin-2-one]	53 nM	116 nM	
Cc1noc(C)c1-c1ccc2c(c1)C(CCCN1CCNCC1)(c1ccccc1)C(=O)N2 (stereo not shown) [Compound 3.8, 5-(3,5-Dimethylisoxazol-4-yl)-3-phenyl-3-(3-(piperazin-1-yl)propyl)indolin-2-one]	51 nM	62 nM	
Cc1noc(C)c1-c1ccc2c(c1)C(CCCN1CCC(O)CC1)(c1ccccc1)C(=O)N2 (stereo not shown) [Compound 3.9, 5-(3,5-Dimethylisoxazol-4-yl)-3-(3-(4-hydroxypiperidin-1-yl)propyl)-3-phenylindolin-2-one]	120 nM	377 nM	
Cc1noc(C)c1-c1ccc2c(c1)C(CCCN(C)C)(c1ccccc1)C(=O)N2 (stereo not shown) [Compound 3.10, 3-(3-(Dimethylamino)propyl)-5-(3,5-dimethylisoxazol-4-yl)-3-phenylindolin-2-one]	140 nM	490 nM	
Cc1noc(C)c1-c1ccc2c(c1)C(O)(c1ccsc1)C(=O)N2 (stereo not shown) [Compound 4.1, 5-(3,5-Dimethylisoxazol-4-yl)-3-hydroxy-3-(thiophen-3-yl)indolin-2-one]	100 nM		EC50 ([5]; Homo sapiens, 72 h): 140 nM
Cc1noc(C)c1-c1ccc2c(c1)C(NC(=O)CN(C)C)(c1ccccc1)C(=O)N2 (stereo not shown) [Compound 6.0, 2-(Dimethylamino)-N-(5-(3,5-dimethylisoxazol-4-yl)-2-oxo-3-phenylindolin-3-yl)acetamide]	320 nM	746 nM	
